Experimental data: patent US9408854B2, “Methods and systems for pharmacogenomic treatment of cardiovascular conditions” (ROSTAQUO S.P.A., priority 2009, dated 2016)

Test system: hypertensive patients
Assay: Pharmacogenomic study: change of office systolic blood pressure (DSBP5_0) after 5 weeks of rostafuroxin vs placebo, by genotype
Type: in vivo, human
Protocol: A pharmacogenomic study was performed to ascertain the effect of genetic variations on an individual response to rostafuroxin. The sample for the pharmacogenomic study consisted of 342 individuals that were genotyped with the Human1M array from Illumina using Human1M Duo CHIP genotyping Bead Chip according to procedure described in [Ref. 10, 11, 12]. Among the individuals, 169 were administered the placebo treatment and 173 the active drug (rostafuroxin) in the first period (5 weeks) with demographics as in [Ref 13]. In particular, patients were randomized to one of the following oral doses of rostafuroxin: 0.05, 0.15, 0.5, 1.5, or 5 mg/day for 5 weeks. Each dose had to be compared to a placebo in a crossover design.
For the above sample of individuals a genetic association analysis, was performed to associate the phenotype of the tested individuals with the SNPs detected in the individuals. The selected phenotype of interest was the blood pressure response. The SNPs selected for detection were the 1111170 SNPs on autosomal chromosomes of the individual.
The genetic analysis was performed according to a quantitative genetic association design where the phenotype of interest is a quantitative variable (QT), and the variables (factors) affecting the distribution of the phenotype of interest are SNPs, therapy (placebo, rostafuroxin) and the SNP*therapy interaction.
In particular, the quantitative phenotype selected for the statistical analyses was the difference in mmHg between the office Systolic Blood Pressure (SBP) at the end of first treatment period (SBP_5) and the office Systolic Blood Pressure at baseline after one month of run-in (SBP_0) and is herein also identified as DSBP5_0. The selected QT phenotype and other factors affecting distribution of the phenotype of interest were then analyzed according to the following quantitative trait interaction test Phenotype=SNP+therapy+SNP*therapy as illustrated in further details below.
In particular, in Table 2 the descriptive statistics of DSBP5_0 for the entire sample and for the patients treated with placebo and rostafuroxin are listed. The rather modest basal level of SBP can be explained in view of the recruitment of patients with “mild” hypertension (SBP range 140-179 mmHg), required by the inclusion of a placebo arm.
Those SNPs were further selected to identify the genotypes with the largest response to rostafuroxin compared to placebo by performing a Statistical ANOVA analysis using STATA software in placebo and rostafuroxin with DSBP5_0 as dependent variable and the candidate significant SNPs as independent variables. In particular, to select the genotypes of the interactions between two SNPs with the largest response to rostafuroxin compared to placebo, the Applicants performed an ANOVA statistics in placebo and rostafuroxin with DSBP5_0 as dependent variable and the interaction s between SNPs as independent variables. The Applicants report an example of this procedure in FIG. 5: interaction between rs8899 and rs4678. The Applicants selected the interaction between the genotype AA of rs8899 and the genotype BB of rs4678 because it presents the greatest remarkable decrement in the therapy group and not in the placebo group.
In particular, to select the genotypes with the largest response to rostafuroxin compared to placebo, the Applicants performed an ANOVA statistics (oneway) in placebo and rostafuroxin with DSBP5_0 as dependent variable and the significant SNPs as independent variables.

[1] = GWS SNP ga001619 (PIGR) genotype 1
[2] = GWS SNP rs188334 (FAIM3) genotype 1
[3] = GWS SNP rs721207 (LOC131691) genotype 3
[4] = GWS SNP rs748140 (PIGR) genotype 1
[5] = GWS SNP rs1110446 (TRIM31) genotype 1
[6] = GWS SNP rs1110446 (TRIM31) genotype 2
[7] = GWS SNP rs1362126 (HLA-F) genotype 3
[8] = GWS SNP rs1901139 (LOC644192) genotype 3
[9] = GWS SNP rs1998394 (LOC728316) genotype 3
[10] = GWS SNP rs2275531 (PIGR) genotype 3
[11] = GWS SNP rs2345088 (KCNS3) genotype 1
[12] = GWS SNP rs2345088 (KCNS3) genotype 2
[13] = GWS SNP rs2427832 (LOC649458) genotype 2
[14] = GWS SNP rs2461911 (LOC389970) genotype 1
[15] = GWS SNP rs2517718 (HLA-A) genotype 1
[16] = GWS SNP rs2555500 (LOC389174) genotype 1
[17] = GWS SNP rs2743951 (RP3-377H14.5) genotype 3
[18] = GWS SNP rs3087816 (SLC30A7) genotype 2
[19] = GWS SNP rs3893464 (HCG9) genotype 1
[20] = GWS SNP rs4710592 (RCADH5) genotype 3
[21] = GWS SNP rs4998662 (FAM46A) genotype 2
[22] = GWS SNP rs5013093 (HLA-G) genotype 1
[23] = GWS SNP rs6457110 (HCG9) genotype 1
[24] = GWS SNP rs6718282 (KCNS3) genotype 2
[25] = GWS SNP rs7216331 (COX10) genotype 2
[26] = GWS SNP rs7521668 (DPH5) genotype 1
[27] = GWS SNP rs7521668 (DPH5) genotype 2
[28] = GWS SNP rs8179654 (LOC642727) genotype 3

In the case of `C[C@]12CC[C@H](O)C[C@H]1CC[C@@H]1[C@@H]2CC[C@]2(C)[C@@](O)(c3ccoc3)CC[C@]12O` [rostafuroxin, 17β-(3-furyl)-5β-androstane-3β,14β,17α-triol], the “higher response in blood pressure drop, low doses vs high doses” value (0.05 to 0.50 mg/day vs 1.5 to 5 mg/day) is reported as “+50%”, the “DELTA delta Therapy placebo” value [1] is reported as 9.252 mmHg and the DSBP5_0 therapy [1] is reported as −13.615 mmHg. For the same compound, the “DELTA delta Therapy placebo” value [2] was 8.146 mmHg, the DSBP5_0 therapy [2] was −11.82 mmHg and the “DELTA delta Therapy placebo” value [3] was 6.934 mmHg. For the same compound, the DSBP5_0 therapy [3] was −11.58 mmHg, the “DELTA delta Therapy placebo” value [4] was 6.506 mmHg and the DSBP5_0 therapy [4] was −11.28 mmHg. The “DELTA delta Therapy placebo” value [5] was 20.59 mmHg, the DSBP5_0 therapy [5] was −16.37 mmHg and the “DELTA delta Therapy placebo” value [6] was 3.54 mmHg. For the same compound, the DSBP5_0 therapy [6] was −10.13 mmHg, the “DELTA delta Therapy placebo” value [7] was 4.93 mmHg and the DSBP5_0 therapy [7] was −10.29 mmHg. For the same compound, the “DELTA delta Therapy placebo” value [8] was 10.52 mmHg, the DSBP5_0 therapy [8] was −12.11 mmHg and the “DELTA delta Therapy placebo” value [9] was 5.788 mmHg. The DSBP5_0 therapy [9] was −10.51 mmHg, the “DELTA delta Therapy placebo” value [10] was 7.817 mmHg and the DSBP5_0 therapy [10] was −12.18 mmHg. The DSBP5_0 therapy (GWS SNP rs2326912 (TMEM200A) genotype 1) was −11.7 mmHg, the “DELTA delta Therapy placebo” value [11] was 33.93 mmHg and the DSBP5_0 therapy [11] was −30.5 mmHg. The “DELTA delta Therapy placebo” value [12] was 3.512 mmHg, the DSBP5_0 therapy [12] was −10.69 mmHg and the “DELTA delta Therapy placebo” value [13] was 6.845 mmHg. For the same compound, the DSBP5_0 therapy [13] was −10.38 mmHg, the “DELTA delta Therapy placebo” value [14] was 22.82 mmHg and the DSBP5_0 therapy [14] was −20.6 mmHg. For the same compound, the “DELTA delta Therapy placebo” value [15] was 6.212 mmHg, the DSBP5_0 therapy [15] was −11.83 mmHg and the “DELTA delta Therapy placebo” value [16] was 5.2 mmHg. For the same compound, the DSBP5_0 therapy [16] was −10.52 mmHg, the “DELTA delta Therapy placebo” value [17] was 5.62 mmHg and the DSBP5_0 therapy [17] was −11.17 mmHg. The “DELTA delta Therapy placebo” value [18] was 7.021 mmHg, the DSBP5_0 therapy [18] was −13.044 mmHg and the “DELTA delta Therapy placebo” value [19] was 9.016 mmHg. The DSBP5_0 therapy [19] was −10.99 mmHg, the “DELTA delta Therapy placebo” value [20] was 20.075 mmHg and the DSBP5_0 therapy [20] was −23.825 mmHg. For the same compound, the “DELTA delta Therapy placebo” value [21] was 13.54 mmHg, the DSBP5_0 therapy [21] was −15.81 mmHg and the “DELTA delta Therapy placebo” value [22] was 22.09 mmHg. For the same compound, the DSBP5_0 therapy [22] was −20.49 mmHg, the “DELTA delta Therapy placebo” value [23] was 5.862 mmHg and the DSBP5_0 therapy [23] was −10.35 mmHg. The DSBP5_0 therapy (GWS SNP rs6718282 (KCNS3) genotype 1) was −41.3 mmHg, the “DELTA delta Therapy placebo” value [24] was 13.825 mmHg and the DSBP5_0 therapy [24] was −12.625 mmHg. The “DELTA delta Therapy placebo” value [25] was 13.91 mmHg, the DSBP5_0 therapy [25] was −15.81 mmHg and the “DELTA delta Therapy placebo” value [26] was 28.95 mmHg. The DSBP5_0 therapy [26] was −25 mmHg, the “DELTA delta Therapy placebo” value [27] was 7.021 mmHg and the DSBP5_0 therapy [27] was −13.044 mmHg. The “DELTA delta Therapy placebo” value [28] was 8.442 mmHg, the DSBP5_0 therapy [28] was −10.95 mmHg and the “DELTA delta Therapy placebo” value (GWS SNP rs9361863 (LOC728360) genotype 1) was 19.6 mmHg.
